Measured values as given in patent US20260306644A1, “ANTIBODY RECRUITING MOLECULES FOR THE TREATMENT OF CORONAVIRUS DISEASE-19” (priority 2023, published 2026).
“And” between values parts separate entries of the source, which are not always exact repeats. Identical values can stand only once. Like-named read-outs stand apart in the source and are kept apart here. Positions of bridges follow the written chain, without caps; N, C: chain ends. No end group written: not given here.

Experiments:
[1] = target: T1, SARS-CoV-2 Spike A (wild-type) (Severe acute respiratory syndrome coronavirus 2, UniProt P0DTC2); assay: MSD ACE2 competition assay (inhibition of Spike binding with ACE2, ECL), A (wild-type)
T1 construct: purchased Meso Scale Diagnostics, LLC V-PLEX SARS-CoV-2 Panel 13 (ACE2) Kit / Panel 23 (ACE2) Kit

SARS-CoV-2 Spike protein = SARS-CoV-2 Spike protein (Severe acute respiratory syndrome coronavirus 2, UniProt P0DTC2); assay: Ternary binding of SARS-CoV-2 Spike protein (293T cells expressing Spike-GFP, IgG-AF647, flow cytometry); format: cell-based; details: 293T cells expressing Spike-GFP; IgG-AF647 10 μg/ml; repeat values/batches listed separately; read-out: SARS-CoV-2 Ternary binding EC50
[2] = tested on: Spike RBD coated magnetic beads / RAW 264.7 macrophages; assay: Antibody-dependent cellular phagocytosis (ADCP), RAW 264.7 macrophages and Spike RBD coated magnetic beads, flow cytometry; format: cell-based; details: 37° C., 2 hours, read-out: SARS-COV-2 ADCP EC50
Description: The ability of the compounds to mediate antibody-dependent cellular phagocytosis (ADCP) was assessed using RAW 264.7 macrophages and Spike RBD coated magnetic beads (https://www.acrobiosystems.com/P3194-SARS-CoV-2-Spike-RBD-coupled-Magnetic-Beads.html). Spike RBD coated magnetic beads (3 ul per well) were added to each well of a round bottom 96-well plates. RAW264.7 cells (50,000 cells per well) were added to the beads. Next, the compounds were administered to predetermined final concentrations. The cell-bead mixtures were incubated at 37° C. for 2 hours. The mixtures were then analyzed by flow cytometry.

[3] = IC50 Wild Type, Wild Type Spike
[4] = read-out: IC50 Wild Type, Wild Type Spike

Molecule | IC50 [1, 3] | EC50 (SARS-CoV-2 Spike protein) | EC50 [2] | IC50 [1, 4]
CC[C@H](C)[C@H](NC(=O)[C@H](CC(C)C)NC(=O)[C@H](CC(=O)O)NC(=O)[C@H](CO)NC(=O)[C@@H](NC(=O)[C@H](CCCNC(=N)N)NC(=O)[C@H](CCSC)NC(=O)[C@H](CO)NC(=O)[C@H](C)NC(=O)[C@H](CCC(=O)O)NC(=O)[C@H](C)NC(=O)[C@H](Cc1c[nH]cn1)NC(=O)CNC(=O)[C@H](CC(C)C)NC(=O)[C@H](CCC(=O)O)NC(=O)[C@H](CC(=O)O)NC(=O)[C@H](CC(C)C)NC(=O)[C@H](CC(C)C)NC(=O)[C@H](CCCNC(=N)N)NC(=O)[C@H](CCSC)NC(=O)[C@@H](NC(=O)[C@H](CCC(=O)O)NC(=O)[C@H](Cc1ccc(O)cc1)NC(=O)[C@@H](NC(=O)[C@H](CCCCN)NC(=O)[C@H](CCC(N)=O)NC(=O)[C@H](CC(C)C)NC(=O)[C@@H](NC(=O)[C@H](Cc1c[nH]c2ccccc12)NC(=O)[C@H](CCC(=O)O)NC(=O)[C@H](CCCCN)NC(=O)[C@H](CC(=O)O)NC(=O)[C@@H](NC(=O)[C@@H]1CSSC[C@H](NC(=O)[C@H](CC(=O)O)NC(C)=O)C(=O)N[C@@H](C)C(=O)N[C@@H](Cc2c[nH]c3ccccc23)C(=O)N[C@@H](Cc2c[nH]cn2)C(=O)N[C@@H](CC(C)C)C(=O)NCC(=O)N[C@@H](CCC(=O)O)C(=O)N[C@@H](CC(C)C)C(=O)N[C@@H](C(C)C)C(=O)N[C@@H](Cc2c[nH]c3ccccc23)C(=O)N1)[C@@H](C)O)[C@@H](C)CC)[C@@H](C)CC)[C@@H](C)CC)C(C)C)C(=O)N[C@@H](Cc1ccc(O)cc1)C(=O)N[C@@H](CCC(=O)O)C(=O)N[C@@H](Cc1ccccc1)C(=O)N[C@@H](CCSC)C(=O)N[C@@H](CCCCN)C(=O)N[C@@H](CCCCN)C(=O)O [Compound 121] | 10.8 nM | 0.83 nM and 0.78 nM |  | 
CC[C@H](C)[C@H](NC(=O)[C@H](CC(C)C)NC(=O)[C@H](CC(=O)O)NC(=O)[C@H](CO)NC(=O)[C@@H](NC(=O)[C@H](CCCNC(=N)N)NC(=O)[C@H](CCSC)NC(=O)[C@H](CO)NC(=O)[C@H](C)NC(=O)[C@H](CCC(=O)O)NC(=O)[C@H](C)NC(=O)[C@H](Cc1c[nH]cn1)NC(=O)CNC(=O)[C@H](CC(C)C)NC(=O)[C@H](CCC(=O)O)NC(=O)[C@H](CC(=O)O)NC(=O)[C@H](CC(C)C)NC(=O)[C@H](CC(C)C)NC(=O)[C@H](CCCNC(=N)N)NC(=O)[C@H](CCSC)NC(=O)[C@@H](NC(=O)[C@H](CCC(=O)O)NC(=O)[C@H](Cc1ccc(O)cc1)NC(=O)[C@@H](NC(=O)[C@H](CCCCN)NC(=O)[C@H](CCC(N)=O)NC(=O)[C@H](CC(C)C)NC(=O)[C@@H](NC(=O)[C@H](Cc1c[nH]c2ccccc12)NC(=O)[C@H](CCC(=O)O)NC(=O)[C@H](CCCCN)NC(=O)[C@H](CC(=O)O)NC(C)=O)[C@@H](C)CC)[C@@H](C)CC)[C@@H](C)CC)C(C)C)C(=O)N[C@@H](Cc1ccc(O)cc1)C(=O)N[C@@H](CCC(=O)O)C(=O)N[C@@H](Cc1ccccc1)C(=O)N[C@@H](CCSC)C(=O)N[C@@H](CCCCN)C(=O)N[C@@H](CCCCN)C(=O)NCC(=O)N[C@@H](CC(=O)O)C(=O)N[C@@H](CCC(=O)O)C(=O)N[C@@H](CCCNC(=N)N)C(=O)N[C@@H](CC(C)C)C(=O)N[C@@H](CC(C)C)C(=O)N[C@@H](CCC(=O)O)C(=O)N[C@@H](CCC(=O)O)C(=O)N[C@@H](C)C(=O)N[C@@H](CCC(=O)O)C(=O)N[C@@H](CCCNC(=N)N)C(=O)N[C@@H](CC(C)C)C(=O)N[C@@H](CC(C)C)C(=O)N[C@@H](CCC(=O)O)C(=O)N[C@@H](CCC(=O)O)C(=O)N[C@H](C(=O)N[C@@H](CCC(=O)O)C(=O)N[C@@H](CCCNC(=N)N)C(=O)NCCOCCOCCOCCOCCOCCOCCOCCOCCC(=O)NCCOCCOCCOCCOCCOCCOCCOCCOCCC(=O)N[C@@H](CC(=O)O)C(=O)N[C@H]1CSSC[C@@H](C(=O)N[C@H](C(N)=O)[C@@H](C)O)NC(=O)[C@H](Cc2c[nH]c3ccccc23)NC(=O)[C@H](C(C)C)NC(=O)[C@H](CC(C)C)NC(=O)[C@H](CCC(=O)O)NC(=O)CNC(=O)[C@H](CC(C)C)NC(=O)[C@H](Cc2c[nH]cn2)NC(=O)[C@H](Cc2c[nH]c3ccccc23)NC(=O)[C@H](C)NC1=O)C(C)C [Compound 124] |  |  | 0.43 nM | 
CC[C@H](C)[C@H](NC(=O)[C@H](CC(C)C)NC(=O)[C@H](CC(=O)O)NC(=O)[C@H](CO)NC(=O)[C@@H](NC(=O)[C@H](CCCNC(=N)N)NC(=O)[C@H](CCSC)NC(=O)[C@H](CO)NC(=O)[C@H](C)NC(=O)[C@H](CCC(=O)O)NC(=O)[C@H](C)NC(=O)[C@H](Cc1c[nH]cn1)NC(=O)CNC(=O)[C@H](CC(C)C)NC(=O)[C@H](CCC(=O)O)NC(=O)[C@H](CC(=O)O)NC(=O)[C@H](CC(C)C)NC(=O)[C@H](CC(C)C)NC(=O)[C@H](CCCNC(=N)N)NC(=O)[C@H](CCSC)NC(=O)[C@@H](NC(=O)[C@H](CCC(=O)O)NC(=O)[C@H](Cc1ccc(O)cc1)NC(=O)[C@@H](NC(=O)[C@H](CCCCN)NC(=O)[C@H](CCC(N)=O)NC(=O)[C@H](CC(C)C)NC(=O)[C@@H](NC(=O)[C@H](Cc1c[nH]c2ccccc12)NC(=O)[C@H](CCC(=O)O)NC(=O)[C@H](CCCCN)NC(=O)[C@H](CC(=O)O)NC(C)=O)[C@@H](C)CC)[C@@H](C)CC)[C@@H](C)CC)C(C)C)C(=O)N[C@@H](Cc1ccc(O)cc1)C(=O)N[C@@H](CCC(=O)O)C(=O)N[C@@H](Cc1ccccc1)C(=O)N[C@@H](CCSC)C(=O)N[C@@H](CCCCN)C(=O)N[C@@H](CCCCN)C(=O)NCC(=O)N[C@@H](CC(=O)O)C(=O)N[C@H]1CSSC[C@@H](C(=O)N[C@H](C(N)=O)[C@@H](C)O)NC(=O)[C@H](Cc2c[nH]c3ccccc23)NC(=O)[C@H](C(C)C)NC(=O)[C@H](CC(C)C)NC(=O)[C@H](CCC(=O)O)NC(=O)CNC(=O)[C@H](CC(C)C)NC(=O)[C@H](Cc2c[nH]cn2)NC(=O)[C@H](Cc2c[nH]c3ccccc23)NC(=O)[C@H](C)NC1=O [Compound 129] | 25 nM | 2.3 nM and 3 nM |  | 
CC[C@H](C)[C@H](NC(=O)[C@H](CC(C)C)NC(=O)[C@H](CC(=O)O)NC(=O)[C@H](CO)NC(=O)[C@@H](NC(=O)[C@H](CCCNC(=N)N)NC(=O)[C@H](CCSC)NC(=O)[C@H](CO)NC(=O)[C@H](C)NC(=O)[C@H](CCC(=O)O)NC(=O)[C@H](C)NC(=O)[C@H](Cc1c[nH]cn1)NC(=O)CNC(=O)[C@H](CC(C)C)NC(=O)[C@H](CCC(=O)O)NC(=O)[C@H](CC(=O)O)NC(=O)[C@H](CC(C)C)NC(=O)[C@H](CC(C)C)NC(=O)[C@H](CCCNC(=N)N)NC(=O)[C@H](CCSC)NC(=O)[C@@H](NC(=O)[C@H](CCC(=O)O)NC(=O)[C@H](Cc1ccc(O)cc1)NC(=O)[C@@H](NC(=O)[C@H](CCCCN)NC(=O)[C@H](CCC(N)=O)NC(=O)[C@H](CC(C)C)NC(=O)[C@@H](NC(=O)[C@H](Cc1c[nH]c2ccccc12)NC(=O)[C@H](CCC(=O)O)NC(=O)[C@H](CCCCN)NC(=O)[C@H](CC(=O)O)NC(C)=O)[C@@H](C)CC)[C@@H](C)CC)[C@@H](C)CC)C(C)C)C(=O)N[C@@H](Cc1ccc(O)cc1)C(=O)N[C@@H](CCC(=O)O)C(=O)N[C@@H](Cc1ccccc1)C(=O)N[C@@H](CCSC)C(=O)N[C@@H](CCCCN)C(=O)N[C@@H](CCCCN)C(=O)NCC(=O)NCCOCCOCCOCCOCCOCCOCCOCCOCCC(=O)NCCOCCOCCOCCOCCOCCOCCOCCOCCC(=O)NCCOCCOCCOCCOCCOCCOCCOCCOCCC(=O)N[C@@H](CC(=O)O)C(=O)N[C@H]1CSSC[C@@H](C(=O)N[C@H](C(=O)O)[C@@H](C)O)NC(=O)[C@H](Cc2c[nH]c3ccccc23)NC(=O)[C@H](C(C)C)NC(=O)[C@H](CC(C)C)NC(=O)[C@H](CCC(=O)O)NC(=O)CNC(=O)[C@H](CC(C)C)NC(=O)[C@H](Cc2c[nH]cn2)NC(=O)[C@H](Cc2c[nH]c3ccccc23)NC(=O)[C@H](C)NC1=O [Compound 168] |  | 0.19 nM |  | 3.26 nM
Ac-DCAWHLGELVWCTILQKIYEIMRLLDELGHAEASMRVSDLIYEFMKK (disulfide 2-12) [Compound 122] | 33.5 nM | > 10 nM |  | 
Ac-DKEWILQKIYEIMRLLDELGHAEASMRVSDLIYEFMKKGGGGGGGGGDCAWHLGELVWCT (disulfide 49-59) [Compound 166] |  | 0.23 nM |  | 16.6 nM
Ac-ILQKIYEICRLLDELGHAEASMRCSDLIYEFMKKGDCAWHLGELVWCT-NH2 (disulfide 9-24, 37-47) [Compound 141] |  | 3.4 nM and 2.1 nM |  | 25.1 nM and 43.8 nM and 30.1 nM
Ac-ILQKIYEIMRLCDELGHAEACMRVSDLIYEFMKKGDCAWHLGELVWCT-NH2 (disulfide 12-21, 37-47) [Compound 139] |  | 17 nM and 13 nM |  | 315 nM and 514 nM and 259 nM
Ac-ILQKIYEIMRLLDELGHAEASMRVSDLIYEFMKKDCAWHLGELVWCT (disulfide 36-46) [Compound 118] | 61.9 nM and 62.5 nM | 0.53 nM and 0.61 nM |  | 
Ac-QKIYEICRLLDELGHAEASMRCSDLIYEFMKKGDCAWHLGELVWCT-NH2 (disulfide 7-22, 35-45) [Compound 140] |  | > 100 nM |  | 1560 nM
Ac-QKIYEIMRLCDELGHAEACMRVSDLIYEFMKKGDCAWHLGELVWCT-NH2 (disulfide 10-19, 35-45) [Compound 164] |  | > 100 nM |  | > 10000 nM
ILQKIYEIMRLLDELGHAEASMRVSDLIYEFMKKDCAWHLGELVWCT (disulfide 36-46) [Compound 119] | 46.6 nM and 66.7 nM | 2.4 nM and 2.9 nM |  | 
